Laboratory results published in article PMC4919643, “Intestinally-targeted TGR5 agonists equipped with quaternary ammonium have an improved hypoglycemic effect and reduced gallbladder filling effect” (Scientific Reports, 2016).
≈ marks a conversion by molar mass, not a printed value.

Key:
ICR mice [1] = assay: Oral glucose tolerance test (OGTT) in ICR mice; type: in vivo, mouse
Method: Blood glucose levels were measured berefore and after glucose loading. *p < 0.05, **p < 0.01 vs. control. Error bar indicateds SEM (standard error of the mean). […]
Oral glucose tolerance test (OGTT) and gallbladder filling assay in ICR mice. 100 […]
(§1) mice (n = 7-8) 90 min prior to the oral glucose load (4 g/kg). Blood glucose levels were measured via blood drops obtained by clipping the tail of the mice using an Accu-Chek Advantage II Glucose Monitor (Roche, Indianapolis, IN, USA) before compound dosing and 0, 15, 30, 60, and 120 min after the glucose load. The area under the concentration−time curve from 0 to 120 min (AUC0−120 min, Glu) of blood glucose after the glucose load was calculated by the trapezoidal rule. […]

Caco-2 cells = assay: Caco-2 permeability determination; type: in vitro ADME
Method: (§2) Caco-2 permeability determination. Caco-2 permeability determination was carried out […]
(§3) Caco-2 cells were obtained from the ATCC (Cat#HTB-37) and maintained in Dulbecco’s modified Eagle’s Medium containing 10% fetal bovine serum, 1% glutamine, 1% nonessential amino acids, 100 μg/mL streptomycin, and 100 U/mL penicillin.
(§4) CO2 and 90% relative humidity environment. Caco-2 cells were passaged every 7 days at a ratio of 1:10. Cells were used between passages 30 and 40. After 21 days of culture, the integrity of the cell monolayer was verified by measuring the transepithelial electrical […]
(§5) Drug transport from the apical side to the basolateral side (A-B) and from the basolateral side to the apical side was measured simultaneously under the same condition.
(§6) Propranolol and atenolol were used as the […] control, respectively.
(§7) Digoxin was used as the positive control for Pgp-mediated drug efflux. In brief, the method was as follows. After washing the monolayer with HBSS three times, the compounds were diluted and added to the appropriate well (pH 6.8 for apical side and pH […]
(§8) 7.4 for basolateral side). […] Samples were […]
(§9) collected from the donor side at 5 and 95 min, and from the receiver side at 35 and 95 min post-incubation. The concentration of samples was measured by LC-MS/MS. The Papp was calculated from the following equation:
(§10) Papp = (VA/(SA×T))×([drug]acceptor/ [durg]initial donor )
(§11) Where VA is the volume of the acceptor well, SA is the surface area of the membrane, T is the total transport time, [drug]acceptor is the drug level at the acceptor side, and [drug]initial donor is the drug level at the donor side at T = 0. […]

[2] = Solubility in water determined by LC-MS/MS; type: physicochemical
ob/ob mice = assay: Hypoglycemic effect of 3 in diabetic model ob/ob mice; type: in vivo, mouse
ICR mice [3] = system: ICR mice; parameters: method as in PMID 25710631; conditions: normal mice (ICR mice); cited from earlier work
[4] = In vitro microsomal stability assay (human); type: in vitro ADME; conditions: human liver microsomes
Method: (§12) Acetonitrile (containing 0.1% formic acid; C (MeOH with 1% TFA). Flow rate: 0.6 […]
(§13) Data system: Masslynx 4.1 (Waters).
(§14) In vitro microsomal stability assay. The test compound was dissolved in DMSO and diluted to the desired concentration with DMSO and 0.1% aqueous BSA. Liver microsomes were incubated in a 96-well plate containing 0.1 M Tris buffer (pH 7.4), 0.33 mg/mL microsomal protein, 0.1 mM test compound, 5.0 mM MgCl2, 0.005% BSA, and 1.0 mM NADPH. Incubations were conducted at 37 °C. An aliquot was removed at each time point and the enzymatic reaction was stopped by protein precipitation in MeOH. The loss of the test compound was determined by LC-MS/MS. The intrinsic clearance (CLint, mL/min/g) was calculated from the following equation: […]
(§15) Where k (min-1) is the slope of the line of the natural log of the percentage parent remaining versus the time of incubation; P is the microsomal protein concentration

mouse TGR5 = target: T1, mouse TGR5 (Mus musculus, UniProt Q80SS6); assay: In vitro TGR5 reporter gene assay (mTGR5/CRE/HEK293)
T1 sequence (Q80SS6 1-329): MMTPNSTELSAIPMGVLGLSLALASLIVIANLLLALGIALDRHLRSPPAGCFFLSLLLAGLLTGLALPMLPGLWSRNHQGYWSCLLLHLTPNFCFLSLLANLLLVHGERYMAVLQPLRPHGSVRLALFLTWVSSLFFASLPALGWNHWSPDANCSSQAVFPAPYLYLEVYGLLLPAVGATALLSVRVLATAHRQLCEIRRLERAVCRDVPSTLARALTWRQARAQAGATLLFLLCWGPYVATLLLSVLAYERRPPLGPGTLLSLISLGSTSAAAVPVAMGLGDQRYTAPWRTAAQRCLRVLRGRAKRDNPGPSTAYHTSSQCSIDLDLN

ICR mice [5] = assay: Gallbladder filling assay in ICR mice; type: in vivo, mouse; conditions: once a day oral dose 50 mg/kg
Method: Figure 4 (A) Relative gallbladder area and (B) relative bile weight after once a day oral dose. After the OGTT experiment, mice were refed for 3 h, the gallbladder was removed and the area measured using a vernier caliper. The relative gallbladder area was calculated from the length multiplied by the width of the gallbladder. Bile weight was measured using analytical balances. *p < 0.05; **p < 0.01; ***p < 0.001. Error bar indicates SEM.
Caco-2 permeability determination. Caco-2 permeability determination was carried out according to (Eur. J. Med. Chem. 2014, 82, 1-15). […]
Drug transport from the apical side to the basolateral side (A-B) and from the basolateral side to the apical side was measured simultaneously under the same condition. […]
Digoxin was used as the positive control for Pgp-mediated drug efflux. […] The concentration of samples was measured by LC-MS/MS. The Papp was calculated from the following equation: […]
as §1

[6] = Caco-2 permeability determination; type: in vitro ADME; conditions: human
Method: as §2, §3, §4, §5, §6, §7, §8, §9, §10, §11

[7] = In vitro microsomal stability assay (mice); type: in vitro ADME; conditions: mice liver microsomes
Method: as §12, §13, §14, §15

human TGR5 = target: T2, human TGR5 (Homo sapiens, UniProt Q8TDU6); assay: In vitro TGR5 reporter gene assay (hTGR5/CRE/HEK293)
T2 sequence (Q8TDU6 1-330): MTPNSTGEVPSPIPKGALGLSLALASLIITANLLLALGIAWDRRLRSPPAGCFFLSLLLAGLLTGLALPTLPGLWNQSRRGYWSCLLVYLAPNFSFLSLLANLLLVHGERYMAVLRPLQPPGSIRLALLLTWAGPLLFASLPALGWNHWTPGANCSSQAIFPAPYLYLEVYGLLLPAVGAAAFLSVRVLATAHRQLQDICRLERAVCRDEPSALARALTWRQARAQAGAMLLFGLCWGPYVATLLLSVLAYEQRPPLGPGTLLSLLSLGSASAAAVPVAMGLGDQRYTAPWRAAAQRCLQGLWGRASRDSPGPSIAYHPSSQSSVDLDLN

[8] = Solubility as noted in the SAR discussion; type: physicochemical; conditions: compounds containing Br
[9] = Caco-2, apical to basolateral side
[10] = Caco-2, basolateral to apical side

## O=C(c1cnccc1Oc1cc(Cl)ccc1Cl)N1CCN(C2CC2)c2ccccc21 [Compound 2, reference compound]
ICR mice [1]; 50 mg/kg p.o.
  AUC0–120 min of blood glucose, signed change vs control (OGTT, Fig. 3B): -16%
ICR mice [1]; 50 mg/kg p.o. 1.5 h before glucose 4 g/kg
  decrease of blood glucose AUC vs control (OGTT): 16%
Caco-2 cells; [9]
  Papp A to B: 6.75 10^−6 cm/s
Caco-2 cells; [10]
  Papp B to A: 5.58 10^−6 cm/s
[2]
  solubility: 0.441 µg/mL (≈ 1 µM)

## O=C(CCc1cc(Cl)c(Oc2ccncc2C(=O)N2CCN(C3CC3)c3ccccc32)cc1Cl)NCCOCCOCCOCCOCCOCCOCCOCCOCCNC(=O)CCc1cc(Cl)c(Oc2ccncc2C(=O)N2CCN(C3CC3)c3ccccc32)cc1Cl [Compound 3]
ob/ob mice
  hypoglycemic effect: no significant effect
ICR mice [3]
  hypoglycemic efficacy: moderate

## O=C(c1sccc1Oc1cc(Cl)ccc1Cl)N1CCN(C2CC2)c2ccccc21 [Compound 9a]
[4]
  liver microsomal clearance (CLint): 1631 mL/min/g
Mouse TGR5
  EC50: 2.8 nM
ICR mice [5]
  increase of gallbladder area vs control: 210%
[6]; Caco-2
  efflux ratio at 95 min: 0.8
[6]; [9]
  Papp A→B at 95 min: 0.55 ×10⁻⁶ cm/s
[6]; [10]
  Papp B→A at 95 min: 0.43 ×10⁻⁶ cm/s
other
  melting point: 120 °C
[7]
  liver microsomal clearance (CLint): 1390 mL/min/g
Human TGR5
  EC50: 0.55 nM

## O=C(c1sccc1Oc1cc(Cl)ccc1Br)N1CCN(C2CC2)c2ccccc21 [Compound 9c]
Mouse TGR5
  EC50: 3 ± 0.69 nM
other
  melting point: 107 °C
[8]
  solubility (in words): poor solubility
Human TGR5
  EC50: 0.58 ± 0.11 nM

## CN1CCN(C(=O)c2sccc2Oc2ccc(C(F)(F)F)cc2)c2ccccc21 [Compound 9h]
other
  melting point: 88 °C
Human TGR5
  EC50: 76 ± 9.8 nM
